Converted amounts (≈) assume the structure as drawn.
How the values were obtained:
Saccharomyces cerevisiae = test: Antifungal against Saccharomyces cerevisiae after 24 hrs by two fold serial dilution method; type: functional
Micrococcus luteus = test: Antibacterial activity against Micrococcus luteus ATCC4698 after 24 hrs by micro broth dilution assay; type: functional; conditions: ATCC4698, 24 h
Shigella dysenteriae = test: Antibacterial activity against Shigella dysenteriae after 24 hrs by micro broth dilution assay; type: functional
Pseudomonas aeruginosa = test: Antibacterial activity against Pseudomonas aeruginosa after 24 hrs by micro broth dilution assay; type: functional
Bacillus subtilis = test: Antibacterial activity against Bacillus subtilis after 24 hrs by micro broth dilution assay; type: functional
Escherichia coli [1] = test: Antibacterial activity against Escherichia coli DH52 after 24 hrs by micro broth dilution assay; type: functional; conditions: DH52, 24 h
Pichia norvegensis = test: Antifungal against Candida mycoderma after 24 hrs by two fold serial dilution method; type: functional
Cyberlindnera jadinii = test: Antifungal against Candida utilis after 24 hrs by two fold serial dilution method; type: functional; conditions: Williopsis jadinii
Escherichia coli [2] = test: Antibacterial activity against Escherichia coli JM109 after 24 hrs by micro broth dilution assay; type: functional; conditions: JM109, 24 h
Salmonella typhi = test: Antibacterial activity against Bacillus typhi after 24 hrs by micro broth dilution assay; type: functional, Salmonella enterica subsp. enterica serovar Typhi; conditions: Salmonella enterica
Candida albicans = test: Antifungal against Candida albicans ATCC 76615 after 24 hrs by two fold serial dilution method; type: functional; conditions: ATCC 76615, 24 h
Bacillus = test: Antibacterial activity against Bacillus proteus ATCC 13315 after 24 hrs by micro broth dilution assay; type: functional; conditions: ATCC 13315, 24 h
Staphylococcus aureus [3] = test: Antibacterial activity against methicillin-resistant Staphylococcus aureus N315 after 24 hrs by micro broth dilution assay; type: functional; conditions: N315, 24 h
Staphylococcus aureus [4] = test: Antibacterial activity against Staphylococcus aureus ATCC 25923 after 24 hrs by micro broth dilution assay; type: functional; conditions: ATCC 25923, 24 h
Aspergillus flavus = test: Antifungal against Aspergillus flavus after 24 hrs by two fold serial dilution method; type: functional

Structure (SMILES) | MIC (Saccharomyces cerevisiae) | MIC (Micrococcus luteus) | MIC (Shigella dysenteriae) | MIC (Pseudomonas aeruginosa) | MIC (Bacillus subtilis) | MIC (Escherichia coli [1]) | MIC (Pichia norvegensis) | MIC (Cyberlindnera jadinii) | MIC (Escherichia coli [2]) | MIC (Salmonella typhi) | MIC (Candida albicans) | MIC (Bacillus) | MIC (Staphylococcus aureus [3]) | MIC (Staphylococcus aureus [4]) | MIC (Aspergillus flavus)
CCCCCCn1c(-c2cc(-c3ccc(C)cc3)nc(N)n2)nc2ccccc21 | 16 µg/mL (≈ 41.5 µM) | 16 µg/mL (≈ 41.5 µM) | 256 µg/mL (≈ 664 µM) | 64 µg/mL (≈ 166 µM) | 128 µg/mL (≈ 332 µM) | 32 µg/mL (≈ 83 µM) | 8 µg/mL (≈ 20.8 µM) | 8 µg/mL (≈ 20.8 µM) | 16 µg/mL (≈ 41.5 µM) | 16 µg/mL (≈ 41.5 µM) | 32 µg/mL (≈ 83 µM) | 16 µg/mL (≈ 41.5 µM) | 16 µg/mL (≈ 41.5 µM) | 128 µg/mL (≈ 332 µM) | 512 µg/mL (≈ 1330 µM)
OC(Cn1cncn1)(Cn1cncn1)c1ccc(F)cc1F [FLUCONAZOLE] | 8 µg/mL (≈ 26.1 µM) |  |  |  |  |  | 4 µg/mL (≈ 13.1 µM) | 16 µg/mL (≈ 52.2 µM) |  |  | 1 µg/mL (≈ 3.27 µM) |  |  |  | 256 µg/mL (≈ 836 µM)
CCCCCCCn1c(C(=O)/C=C/c2ccc(Cl)cc2)nc2ccccc21 | 512 µg/mL (≈ 1340 µM) | 8 µg/mL (≈ 21 µM) | 512 µg/mL (≈ 1340 µM) | 512 µg/mL (≈ 1340 µM) | 256 µg/mL (≈ 672 µM) | 32 µg/mL (≈ 84 µM) | 512 µg/mL (≈ 1340 µM) | 512 µg/mL (≈ 1340 µM) | 512 µg/mL (≈ 1340 µM) | 512 µg/mL (≈ 1340 µM) | 512 µg/mL (≈ 1340 µM) | 512 µg/mL (≈ 1340 µM) | 512 µg/mL (≈ 1340 µM) | 256 µg/mL (≈ 672 µM) | 64 µg/mL (≈ 168 µM)
CCCCCCCCn1c(-c2cc(-c3ccc(C)cc3)nc(N)n2)nc2ccccc21 | 128 µg/mL (≈ 310 µM) | 16 µg/mL (≈ 38.7 µM) | 512 µg/mL (≈ 1240 µM) | 512 µg/mL (≈ 1240 µM) | 512 µg/mL (≈ 1240 µM) | 8 µg/mL (≈ 19.3 µM) | 512 µg/mL (≈ 1240 µM) | 16 µg/mL (≈ 38.7 µM) | 128 µg/mL (≈ 310 µM) | 512 µg/mL (≈ 1240 µM) | 512 µg/mL (≈ 1240 µM) | 512 µg/mL (≈ 1240 µM) | 512 µg/mL (≈ 1240 µM) | 512 µg/mL (≈ 1240 µM) | 512 µg/mL (≈ 1240 µM)
CCCCCCn1c(C(=O)/C=C/c2ccc(F)cc2)nc2ccccc21 | 512 µg/mL (≈ 1460 µM) | 16 µg/mL (≈ 45.7 µM) | 256 µg/mL (≈ 731 µM) | 512 µg/mL (≈ 1460 µM) | 256 µg/mL (≈ 731 µM) | 32 µg/mL (≈ 91.3 µM) | 512 µg/mL (≈ 1460 µM) | 512 µg/mL (≈ 1460 µM) | 512 µg/mL (≈ 1460 µM) | 512 µg/mL (≈ 1460 µM) | 256 µg/mL (≈ 731 µM) | 64 µg/mL (≈ 183 µM) | 512 µg/mL (≈ 1460 µM) | 512 µg/mL (≈ 1460 µM) | 16 µg/mL (≈ 45.7 µM)
O=C(/C=C/c1ccc(Cl)cc1Cl)c1nc2ccccc2[nH]1 | 16 µg/mL (≈ 50.4 µM) | 512 µg/mL (≈ 1610 µM) | 256 µg/mL (≈ 807 µM) | 512 µg/mL (≈ 1610 µM) | 64 µg/mL (≈ 202 µM) | 512 µg/mL (≈ 1610 µM) | 512 µg/mL (≈ 1610 µM) | 64 µg/mL (≈ 202 µM) | 128 µg/mL (≈ 404 µM) | 512 µg/mL (≈ 1610 µM) | 256 µg/mL (≈ 807 µM) | 512 µg/mL (≈ 1610 µM) | 256 µg/mL (≈ 807 µM) | 128 µg/mL (≈ 404 µM) | 512 µg/mL (≈ 1610 µM)
